Where a name gives a salt, the structure may show the parent alone.
Target: T1, Na^+ /H^+ exchanger (Rattus norvegicus, UniProt P26431)
T1 construct: endogenous in cells; host or cells: thymocytes freshly isolated from the thymus of a male SD rat
Test: Inhibitory activity on Na^+ /H^+ exchange in cells (swelling of thymocytes in sodium propionate medium)
Format: cell-based, rat (SD strain)
Settings: apparent Ki from Lineweaver-Burk plot, sodium-propionate medium pH 6.8, rate of swelling, 3-5 concentrations
Experimental: [2] Inhibitory activity on Na^+ /H^+ exchange in cells
Procedure was carried out according to a similar manner to the method described in Enzymology 173 , 777 (1989).
One male SD strain rat weighing 250-300 g was sacrificed with the blow on the head. Then, the thymus was removed into ice-cold NaCl medium (140 mM sodium chloride, 1 mM potassium chloride, 1 mM calcium chloride, 1 mM magnesium chloride, 10 mM glucose and 20 mM N-2-hydroxyethylpiperazine-N'-2-ethanesulfonic acid (HEADS)--pH 7.3), cut in small fragments, and transferred to glass homogenizer. The cells were dissociated by gentle strokes, and the resulting suspension was filtrated through six layers of surgical gauze and the filtrate was centrifuged at 4° C. at 1000 g for 5 minutes. The pellet was resuspended in RPMI 1640 medium (pH 7.3) at room temperature to adjust final cell concentration (1×10^7 cells/ml).
This method detects the swelling that accompanies activation of Na^+ /H^+ exchanger in cells incubated with sodium propionate. Propionic acid rapidly penetrates through the membrane. […]
Cell sizing and counting were performed electrically with the Coulter Counter-Channelyzer (AT-II). […] Rate of Swelling (Δ volume/min.) was measured by using 3-5 concentrations of test compound. Then, apparent Ki value of test compound was calculated by using Line weaver-Burk plot.

T1 sequence (P26431 whole entry): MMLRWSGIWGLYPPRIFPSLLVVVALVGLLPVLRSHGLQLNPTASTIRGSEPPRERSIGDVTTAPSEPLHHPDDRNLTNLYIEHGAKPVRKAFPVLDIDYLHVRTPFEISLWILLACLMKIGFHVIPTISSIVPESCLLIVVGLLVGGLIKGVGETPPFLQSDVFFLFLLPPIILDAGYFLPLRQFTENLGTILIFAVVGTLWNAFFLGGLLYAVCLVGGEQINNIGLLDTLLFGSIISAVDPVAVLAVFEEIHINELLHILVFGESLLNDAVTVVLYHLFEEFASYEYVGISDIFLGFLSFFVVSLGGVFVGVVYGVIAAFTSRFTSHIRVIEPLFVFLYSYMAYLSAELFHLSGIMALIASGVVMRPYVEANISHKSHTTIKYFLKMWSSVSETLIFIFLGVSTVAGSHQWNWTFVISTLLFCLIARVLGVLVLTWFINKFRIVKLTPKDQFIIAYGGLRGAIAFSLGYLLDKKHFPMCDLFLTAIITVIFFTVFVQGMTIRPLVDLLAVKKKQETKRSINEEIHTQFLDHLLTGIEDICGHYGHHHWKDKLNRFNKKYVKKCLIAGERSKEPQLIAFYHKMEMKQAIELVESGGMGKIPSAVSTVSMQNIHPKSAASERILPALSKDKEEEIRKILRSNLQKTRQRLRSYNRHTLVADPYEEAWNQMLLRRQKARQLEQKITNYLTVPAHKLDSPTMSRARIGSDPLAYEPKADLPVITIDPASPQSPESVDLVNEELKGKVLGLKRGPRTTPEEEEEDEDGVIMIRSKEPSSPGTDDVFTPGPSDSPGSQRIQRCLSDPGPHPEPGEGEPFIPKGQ

NC(N)=NC(=O)c1cc(C(=O)NCCN2CCOCC2)cc(-c2cc(Cl)ccc2Cl)c1 [(a), [5-(2,5-dichlorophenyl)-3-[(2-morpholinoethyl)-carbamoyl]benzoyl]guanidine.dihydrochloride]
Ki: < 100 nM
